Here are results for 7 compounds from PMC12432892, “Therapeutic applications of interface-mimicking peptides for targeting the SARS-CoV-2 NSP12-NSP8 RdRp complex” (Molecular Therapy, 2025).

Data set [1] can be described thus: in vitro. The conditions noted are these: Vero-E6 cells, MTT, 40 μM peptide, read-out: cell viability. Format: cell-based. The protocol:
(§1) The cytotoxicity of test samples was assessed in Vero-E6 cells using the MTT assay, following the manufacturer’s protocol for the CellTiter 96 Non-radioactive Cell Proliferation Assay (Promega). Briefly, […] cells were seeded in 96-well plates at a density of 2 × 10^4 cells per well and incubated for 24 h. Following this, cells were treated with test samples at concentrations ranging from 0.2 to 40 μM and incubated for an additional 24 h. After incubation, 15 μL of MTT reagent (dye solution) was added to each well, and the cells were further incubated for 4 h. Subsequently, 100 μL of solubilization/stop solution was added to dissolve the formazan crystals. The optical density was measured at 570 nm, and statistical significance was determined by comparing the results to those of the mock-treated cells. […]
(§2) Figure S5. MTT assay of peptides including scrambled version
(§3) Vero-E6 cells were treated with NSP8-based peptides at concentrations ranging from 0.2 to 40 μM and incubated for an additional 24 hours. Cytotoxicity was evaluated using the MTT assay to assess the impact of the peptides on cell viability. According to IOS 10993-5 guidelines, cell […]
(§4) moderate cytotoxicity, and below 40% signifies strong cytotoxicity. […]

In data set [2] the test system is Vero-E6 cells. Nature of the data set: in vitro. The conditions noted are these: MTT, 24 h. Type of data set: cell-based. Here is the method: as §1, §2, §3, §4
The test system of data set [3] is wild-type ancestral SARS-CoV-2 L-clade strain. Type of data set: cell-based.
A short description of data set [4]: Plasma stability. Type of data set: in vitro ADME. The conditions noted are these: mouse plasma (ICR, male, K2-EDTA), LC-MS/MS; for Plasma Stability Half-life / time to complete loss of detectable peptide in plasma: 10 μM; for Plasma Stability Half-life / half-life at 10 μM: 37°C, 0, 20, 40, 60, 120 min, duplicate (n = 2); for time to complete loss of detectable peptide in plasma: 37°C, n = 2. Here is the method: Plasma stability of the peptides was evaluated using mouse plasma (ICR, male, K2-EDTA) purchased from Innovative Research. Each peptide (10 μM final concentration) was incubated at 37°C for 0, 20, 40, 60, and 120 min. Samples were processed and analyzed by LC-MS/MS, as described above. Procaine was used as a positive control.
(§5) All in vitro stability experiments were performed in duplicate (n = 2). Since the standard deviation was less than 20% in all cases, no additional replicates were conducted.

Data set [5] in a line: Liver microsomal stability. Type of data set: in vitro ADME, mouse. The conditions noted are these: for Metabolic Stability Evaluation: classified based on in vivo CL_int values (footnote of Table S3); for half-life at 10 μM / remaining at 1 h, 10 μM / microsomal CLint at 10 μM: mouse liver microsomes (CD-1, pooled), 37°C; for half-life at 10 μM: NADPH, 0, 5, 15, 30, 60 min, duplicate (n = 2); for half-life at 10 μM / remaining at 1 h, 10 μM: LC-MS/MS; for remaining at 1 h, 10 μM / microsomal CLint at 10 μM: NADPH; for remaining at 1 h, 10 μM: n = 2, read-out: Microsomal Stability Remaining at 60 min; for microsomal CLint at 10 μM: calculated from the depletion rate, read-out: CL_int, microsomal; for CL_int, in vivo: scaled from microsomal CL_int to in vivo liver clearance using established mouse parameters. Here is the method:
Reactions were quenched and peptide concentrations were quantified using liquid chromatography-tandem mass spectrometry (LC-MS/MS) (AB Sciex QTRAP 6500+, Analyst software version 1.7.2). Clearance and half-life were calculated by non-compartmental analysis, and values were converted to hepatic clearance (CLint, liver) using standard scaling factors.
as §5

Data set [6] concerns the target T1, NSP12-NSP8-NSP7 complex (Severe acute respiratory syndrome coronavirus 2, UniProt P0DTD1).
T1 construct: made in house; host or cells: NSP12: baculovirus in Hifive insect cells; NSP7 and NSP8: E. coli BL21(DE3), pET-11
Format: binding, SARS-CoV-2. The conditions noted are these: for KD of the NSP8-NSP7-RNA ligand complex to NSP12 in the presence of the peptide: MST, labeled NSP12 20 nM, PBS with Tween 20, mean ± SD, more than three independent analyses, no-peptide Ctrl 11.9-12.9 nM.

[7] abbreviates: concentrations between 20 and 40 μM.

`CC[C@H](C)[C@H](NC(=O)[C@H](CC(N)=O)NC(=O)[C@H](CC(N)=O)NC(=O)[C@H](CC(C)C)NC(=O)[C@H](C)NC(=O)[C@H](CC(=O)O)NC(=O)[C@H](CC(N)=O)NC(C)=O)C(=O)N[C@H](C(=O)N[C@@H](CC(N)=O)C(=O)N[C@@H](CC(N)=O)C(=O)N[C@@H](C)C(=O)N[C@@H](CCCNC(=N)N)C(=O)N[C@@H](CC(=O)O)C(=O)NCC(=O)N[C@@H](CS)C(=O)N[C@H](C(=O)N1CCC[C@H]1C(=O)N[C@@H](CC(C)C)C(=O)N[C@@H](CC(N)=O)C(=O)N[C@H](C(=O)N[C@H](C(=O)N1CCC[C@H]1C(=O)N[C@@H](CC(C)C)C(=O)N[C@H](C(=O)N[C@H](C(=O)N[C@@H](C)C(=O)NCC(=O)N[C@@H](CCCNC(=N)N)C(=O)N[C@@H](CCCCN)C(=O)N[C@@H](CCCCN)C(=O)N[C@@H](CCCNC(=N)N)C(=O)N[C@@H](CCCNC(=N)N)C(=O)N[C@@H](CCC(N)=O)C(=O)N[C@@H](CCCNC(=N)N)C(=O)N[C@@H](CCCNC(=N)N)C(=O)N[C@@H](CCCNC(=N)N)C(=O)N1CCC[C@H]1C(=O)N[C@@H](CCC(N)=O)C(N)=O)[C@@H](C)O)[C@@H](C)O)[C@@H](C)CC)[C@@H](C)CC)C(C)C)[C@@H](C)CC` [N8-Pepα]: in data set [1], the viability at 24 h, 40 µM was > 80%. Moreover, the “cytotoxicity (ISO 10993-5)” value in data set [2] (at 40 μM) is “no cytotoxicity (cell viability above 80% indicates no cytotoxicity)”. In addition, the “viral replication (infectious virus titers, TCID50), in words” value in data set [3] is reported as “strongest antiviral effects”. Moreover, in data set [4], the “Plasma Stability Half-life” value is “approximately 3 min”, the “time to complete loss of detectable peptide in plasma” value (shortened to “time to complete loss”) was ≤ 20 min and the half-life at 10 μM came out at 3 min. In data set [5], the “Metabolic Stability Evaluation” value is listed as “High metabolism”; the half-life at 10 μM worked out at 9.2 min; the fraction remaining at 1 h, 10 μM was 0%; the microsomal CLint at 10 μM is 151 µL/min/mg. For the same compound, in data set [5], the “CL_int, in vivo” value was 594.7 mL/min/kg.
Turning to `CC[C@H](C)[C@@H]1NC(=O)[C@H](CC(N)=O)NC(=O)[C@H](CC(N)=O)NC(=O)[C@H](CC(C)C)NC(=O)[C@H](C)NC(=O)[C@H](CC(=O)O)NC(=O)[C@H](CC(N)=O)NC(=O)[C@@H](NC(C)=O)CSSC[C@@H](C(=O)NCC(=O)N[C@@H](CCCNC(=N)N)C(=O)N[C@@H](CCCCN)C(=O)N[C@@H](CCCCN)C(=O)N[C@@H](CCCNC(=N)N)C(=O)N[C@@H](CCCNC(=N)N)C(=O)N[C@@H](CCC(N)=O)C(=O)N[C@@H](CCCNC(=N)N)C(=O)N[C@@H](CCCNC(=N)N)C(=O)N[C@@H](CCCNC(=N)N)C(=O)N2CCC[C@H]2C(=O)N[C@@H](CCC(N)=O)C(N)=O)NC(=O)[C@H](C)NC(=O)[C@H]([C@@H](C)O)NC(=O)[C@H]([C@@H](C)O)NC(=O)[C@H](CC(C)C)NC(=O)[C@@H]2CCCN2C(=O)[C@H]([C@@H](C)CC)NC(=O)[C@H]([C@@H](C)CC)NC(=O)[C@H](CC(N)=O)NC(=O)[C@H](CC(C)C)NC(=O)[C@@H]2CCCN2C(=O)[C@H](C(C)C)NC(=O)[C@H](CS)NC(=O)CNC(=O)[C@H](CC(=O)O)NC(=O)[C@H](CCCNC(=N)N)NC(=O)[C@H](C)NC(=O)[C@H](CC(N)=O)NC(=O)[C@H](CC(N)=O)NC(=O)[C@H]([C@@H](C)CC)NC1=O` [N8-Pepα_cyc], in data set [1], the viability at 24 h, 40 µM is > 80%. For the same compound, the “cytotoxicity (ISO 10993-5)” value in data set [2] (at 40 μM) is “no cytotoxicity (cell viability above 80% indicates no cytotoxicity)”. For the same compound, the “viral replication (infectious virus titers, TCID50), in words” value in data set [3] was “strongest antiviral effects”. Besides, in data set [4], the “Plasma Stability Half-life” value was “approximately 3 min”, the “time to complete loss” value is listed as ≤ 20 min and the half-life at 10 μM was 3 min. Moreover, in data set [5], the “Metabolic Stability Evaluation” value is on record as “High metabolism”; the half-life at 10 μM came to 23.3 min; the share remaining at 1 h, 10 μM was 14.9%; the microsomal CLint at 10 μM was 59.6 µL/min/mg. Besides, the “CL_int, in vivo” value in data set [5] was 234.7 mL/min/kg.
Turning to `CC[C@H](C)[C@H](NC(=O)[C@H](CC(N)=O)NC(=O)[C@H](CC(C)C)NC(=O)[C@@H]1CCCN1C(=O)[C@@H](NC(=O)[C@H](CS)NC(=O)CNC(=O)[C@H](CC(=O)O)NC(=O)[C@H](CCCNC(=N)N)NC(=O)[C@H](C)NC(=O)CNC(=O)[C@H](CO)NC(=O)CNC(=O)[C@H](CCCNC(=N)N)NC(=O)[C@H](CCCNC(=N)N)NC(=O)[C@H](CCCNC(=N)N)NC(=O)[C@H](CCC(N)=O)NC(=O)[C@H](CCCNC(=N)N)NC(=O)[C@H](CCCNC(=N)N)NC(=O)[C@H](CCCCN)NC(=O)[C@H](CCCCN)NC(=O)[C@H](CCCNC(=N)N)NC(=O)CNC(=O)[C@H](Cc1ccc(O)cc1)NC(C)=O)C(C)C)C(=O)N[C@H](C(=O)N1CCC[C@H]1C(=O)N[C@@H](CC(C)C)C(=O)N[C@H](C(=O)N[C@H](C(=O)N[C@@H](C)C(=O)N[C@@H](C)C(=O)N[C@@H](CCCCN)C(=O)N[C@@H](CC(C)C)C(=O)N[C@@H](CCSC)C(=O)N[C@H](C(=O)N[C@H](C(=O)N[C@H](C(=O)N1CCC[C@H]1C(=O)N[C@@H](CC(=O)O)C(N)=O)[C@@H](C)CC)C(C)C)C(C)C)[C@@H](C)O)[C@@H](C)O)[C@@H](C)CC` [N8-PepβD], the “cytotoxicity (ISO 10993-5)” value in data set [2] (setting [7]) was “weak cytotoxicity (80%-60% suggests weak cytotoxicity)”. In data set [4], the “Plasma Stability Half-life” value is recorded as “approximately 3 min”, the “time to complete loss” value is recorded as ≤ 20 min and the half-life at 10 μM came out at 3 min. In data set [5], the “Metabolic Stability Evaluation” value is recorded as “High metabolism”; the half-life at 10 μM is 17.8 min; the amount remaining at 1 h, 10 μM amounted to 7.8%; the microsomal CLint at 10 μM was 77.9 µL/min/mg. Also, in data set [5], the “CL_int, in vivo” value was 306.7 mL/min/kg.
In the case of `CC[C@H](C)[C@H](NC(=O)[C@H](CC(N)=O)NC(=O)[C@H](CC(N)=O)NC(=O)[C@H](CC(C)C)NC(=O)CNC(=O)[C@H](CO)NC(=O)CNC(=O)[C@H](CCCNC(=N)N)NC(=O)[C@H](CCCNC(=N)N)NC(=O)[C@H](CCCNC(=N)N)NC(=O)[C@H](CCC(N)=O)NC(=O)[C@H](CCCNC(=N)N)NC(=O)[C@H](CCCNC(=N)N)NC(=O)[C@H](CCCCN)NC(=O)[C@H](CCCCN)NC(=O)[C@H](CCCNC(=N)N)NC(=O)CNC(=O)[C@H](Cc1ccc(O)cc1)NC(C)=O)C(=O)N[C@H](C(=O)N[C@@H](CC(N)=O)C(=O)N[C@@H](CC(N)=O)C(=O)N[C@@H](C)C(=O)N[C@@H](CCCNC(=N)N)C(=O)N[C@@H](CC(=O)O)C(=O)NCC(=O)N[C@@H](CS)C(=O)N[C@H](C(=O)N1CCC[C@H]1C(=O)N[C@@H](CC(C)C)C(=O)N[C@@H](CC(N)=O)C(=O)N[C@H](C(=O)N[C@H](C(=O)N1CCC[C@H]1C(=O)N[C@@H](CC(C)C)C(=O)N[C@H](C(=O)N[C@H](C(=O)N[C@@H](C)C(=O)N[C@@H](C)C(=O)N[C@@H](CCCCN)C(=O)N[C@@H](CC(C)C)C(=O)N[C@@H](CCSC)C(=O)N[C@H](C(=O)N[C@H](C(N)=O)C(C)C)C(C)C)[C@@H](C)O)[C@@H](C)O)[C@@H](C)CC)[C@@H](C)CC)C(C)C)[C@@H](C)CC` [N8-Pepβ], the “cytotoxicity (ISO 10993-5)” value in data set [2] (setting [7]) was “weak cytotoxicity (80%-60% suggests weak cytotoxicity)”. Also, in data set [4], the “Plasma Stability Half-life” value was “approximately 3 min”, the “time to complete loss” value was ≤ 20 min and the half-life at 10 μM was 3 min. Further, in data set [5], the “Metabolic Stability Evaluation” value is listed as “High metabolism”; the half-life at 10 μM was 9.8 min; the fraction remaining at 1 h, 10 μM was determined as 15.1%; the intrinsic clearance (microsomal CLint) at 10 μM was 142 µL/min/mg. In addition, in data set [5], the “CL_int, in vivo” value was 559.2 mL/min/kg.
Consider “Ac-INRNLTVPNICTPGILINADANADLNGRKKRRQRRRPQ-NH2 [N8-Pepα_sc]”, for which, in data set [6], the “KD of the NSP8-NSP7-RNA ligand complex to NSP12 in the presence of the peptide” value is given as 14.3 ± 1.0 nM.
The same measure, in the same setting: with “Ac-YGRKKRRQRRRGSGINVDAPMNNAGLKLTIRPCLTVIVNANIL-NH2 [N8-Pepβ_sc]” the figure was 14.2 ± 0.9 nM.
Take “Ac-YGRKKRRQRRRGSGVVIPKIDLAAPNLMDLVPCRIATTG-NH2 [N8-PepβD_sc]”: the “peptide aggregation in the MST assay” value in data set [6] (PBS with Tween 20 buffer, peptide 24 μM) was “could not be determined due to peptide aggregation”.

The term viability denotes a per cent measure of how many cells are alive, often set against a control. In general, half-life refers to the time needed for the level to fall by half in the phase considered. What is called fraction remaining is the share of the starting amount still present when the sample was taken. What is called microsomal CLint is a measure of how fast metabolising enzymes remove a compound, apart from limits set by blood flow.
